We go through four molecules from PMC6211275, “Phosphonate inhibitors of West Nile virus NS2B/NS3 protease” (Journal of Enzyme Inhibition and Medicinal Chemistry, 2018).

Series [1] deals with West Nile virus NS2B/NS3 protease. Particulars: ref 15 (Behnam et al.); cited from earlier work.
Series [2] concerns Dengue and WNV titres. Details: method as in earlier work. Particulars: cell-based assays of virus replication; ref 15 (Behnam et al.); read-out: EC50, reduction of Dengue and WNV titres; cited from earlier work.
Series [3] addresses WNV NS2B/NS3 protease (West Nile virus, UniProt P06935). Kind of series: In vitro NS2B/NS3 protease inhibition (fluorescent substrate Pyr-RTKR-AMC, progress curve method). Type of series: biochemical. Particulars: for k2/Ki: Table 2, peptide phosphonates, substrate Pyr-RTKR-AMC 20 µM; for improvement in inhibitory potency after introduction of P2 Arg and P3 Lys: peptidyl derivative vs. simple Cbz-protected parent phosphonate. As for the experimental part: For the initial screening, Cbz-protected aminophosphonates were assayed in 96 well microplates (Nunc™ F96 MicroWell™ White Polystyrene Plate) in the following protease buffer: 50 mM Tris, 1 mM Chaps, 20% glycerol, pH 8.5. WNV NS2B/NS3 protease (AnaSpec, Liege, Belgium; 20 nM) was pre-incubated with tested inhibitor (100 µM) in the protease buffer at 37 °C for 10 min prior an addition of the fluorescent substrate Pyr-RTKR-AMC (AnaSpec, Liege, Belgium; 20 µM). The progress of the reaction was monitored continuously (λex = 354 nm, λem = 442 nm) at 37 °C on a Spectra Max Gemini XPS spectrofluorometer (Molecular Devices, Sunnyvale, CA) for 30 min. […] In 96 well microplates narrowed concentration of inhibitors and constant substrate concentration (Pyr-RTKR-AMC, C = 20 µM, KM = 59 µM) were prepared. The enzyme solution was added and enzymatic reaction was monitored (Figure S1). Using a model for irreversible inhibition, in which the first order inactivation rate constant kobs is hyperbolic dependent from the inhibitor concentration Ki and k2/Ki values were calculated (equations (1–4) in supplementary material)[29]. Control progress curves in the absence of inhibitor were linear.
The inhibitory activity of the compounds was determined by the progress curve method. First the data from nonlinear progress curves with time dependent inhibitors were fit to eq.1 to obtain the first-order rate constant (kobs):
The second-order rate constants (k2/KI) and (KI)app values were calculated using hyperbolic regression according to equation 3: […]
KI values were calculated according to equation 3: […]

For series [4], the target named is T1, Bovine β-trypsin (Bos taurus, UniProt P00760).
T1 construct: purchased AppliChem, Łódź, Poland
T1 sequence (P00760 24-246): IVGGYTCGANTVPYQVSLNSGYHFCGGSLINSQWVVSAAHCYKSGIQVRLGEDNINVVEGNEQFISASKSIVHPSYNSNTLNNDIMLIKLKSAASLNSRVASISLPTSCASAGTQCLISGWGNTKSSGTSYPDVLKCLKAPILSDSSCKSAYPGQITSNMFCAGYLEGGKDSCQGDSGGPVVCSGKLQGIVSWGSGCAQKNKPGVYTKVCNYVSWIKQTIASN
Kind of series: Control proteases inhibition assay, trypsin. Particulars: inhibitor concentration 25 μM, after 30 min incubation at 37 °C. Type of series: biochemical. As for the experimental part:
(§1) Bovine β-trypsin (AppliChem, Łódź, Poland), human cathepsin G (Biocentrum, Kraków, Poland) and Human Airway Trypsin-like Protease (HAT) (R&D Systems, Minneapolis, MN) were used as control proteases to screen the activity of NS2B/NS3 protease inhibitors (36–39) obtained in this study. Inhibitors were assayed in 96-well microplates in the 0.1 M HEPES, 0.5 M NaCl, 0.03%, pH 7.5 Triton X-100 (for bovine β-trypsin and cathepsin G). Bovine β-trypsin (15 nM), human cathepsin G (150 nM) or HAT protease (0.001 µg) was pre-incubated with tested inhibitor (25 µM) in the protease buffer at 37 °C for 10 min prior to the addition of the fluorescent substrate: Cbz-Arg-AFC (synthesised in-house according to the procedure described by Bissell[30]; 50 µM; λex = 400 nm, λem = 505 nm, for bovine β-trypsin); MeO-Suc-Ala-Ala-Pro-Val-AMC (Bachem, Bubendorf, Switzerland; 40 µM, λex = 340 nm, λem = 440 nm, for human cathepsin G) or Phe-Ser Arg-AMC (Bachem, Bubendorf, Switzerland; 40 µM, λex = 340 nm, λem = 440 nm, for HAT protease). The progress of the reactions was monitored continuously at 37 °C on a Spectra Max Gemini XPS spectrofluorometer for 20 min. Control curves in the absence of inhibitor were linear. The rate of the tested protease inhibition was calculated from the linear range of the plot.

Series [5] has as its target T2, Human Airway Trypsin-like Protease (HAT) (Homo sapiens, UniProt O60235).
T2 construct: purchased R&D Systems, Minneapolis, MN
T2 sequence (O60235 1-418): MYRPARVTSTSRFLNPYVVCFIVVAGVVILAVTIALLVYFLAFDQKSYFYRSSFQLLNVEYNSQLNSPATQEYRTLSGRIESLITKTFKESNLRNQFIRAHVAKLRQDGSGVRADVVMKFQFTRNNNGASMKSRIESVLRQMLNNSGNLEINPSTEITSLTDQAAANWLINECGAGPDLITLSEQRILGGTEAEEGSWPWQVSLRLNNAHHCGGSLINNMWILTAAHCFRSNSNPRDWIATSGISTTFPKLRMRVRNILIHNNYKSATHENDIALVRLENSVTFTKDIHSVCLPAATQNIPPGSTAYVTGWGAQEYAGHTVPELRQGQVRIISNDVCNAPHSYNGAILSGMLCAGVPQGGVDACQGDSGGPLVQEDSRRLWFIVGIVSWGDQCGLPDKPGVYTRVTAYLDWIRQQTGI
Kind of series: Control proteases inhibition assay, HAT protease. Type of series: biochemical. Particulars: inhibitor concentration 25 μM, after 30 min incubation at 37 °C. On the procedure:
as §1

Series [6] addresses T3, human cathepsin G (Homo sapiens, UniProt P08311).
T3 construct: purchased Biocentrum, Kraków, Poland
T3 sequence (P08311 21-255): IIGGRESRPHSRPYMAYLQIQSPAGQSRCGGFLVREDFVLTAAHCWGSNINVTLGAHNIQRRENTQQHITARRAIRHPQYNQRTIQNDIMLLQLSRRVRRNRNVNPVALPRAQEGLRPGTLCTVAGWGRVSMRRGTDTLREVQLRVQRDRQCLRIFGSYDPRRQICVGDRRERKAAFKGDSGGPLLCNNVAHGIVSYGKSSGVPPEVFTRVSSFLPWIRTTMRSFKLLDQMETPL
Kind of series: Control proteases inhibition assay, cathepsin G. Particulars: inhibitor concentration 25 μM, after 30 min incubation at 37 °C. Type of series: biochemical. As for the experimental part:
as §1

The nature of series [7]: Stability in assay buffer (HPLC analysis). Format: physicochemical. As for the experimental part: Stability in assay buffer. A stock solution of compound (38) (10 mM in acetonitrile) was added to the assay buffer (50 mM Tris, 1 mM Chaps, 20% glycerol, pH 8.5) to make a final concentration of 2 mg/mL and incubated at 37°C. The resulting mixture was subjected to HPLC analysis to determine compound stability using a Discovery® BIO Wide Pore C8 HPLC Column (250 mm × 4.6 mm, 10 μm) with a 1 mL/min flow rate, gradient 0−100% [0.05% TFA in acetonitrile] in [0.05% TFA in water] over a period of 15 min.

Marks after values point to notes of the source that are not given here.

Sequence of WNV NS2B/NS3 protease (P06935 1502-1680): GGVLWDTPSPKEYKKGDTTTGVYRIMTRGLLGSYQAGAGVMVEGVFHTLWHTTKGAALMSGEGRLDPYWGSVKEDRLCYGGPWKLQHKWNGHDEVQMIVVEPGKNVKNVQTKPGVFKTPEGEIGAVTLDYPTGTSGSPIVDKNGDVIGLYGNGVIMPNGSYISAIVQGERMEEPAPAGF
Sequence of WNV NS2B/NS3 protease (P06935 1419-1466): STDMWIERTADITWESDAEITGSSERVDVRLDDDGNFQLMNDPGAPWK

For orientation: Ki means the equilibrium dissociation constant of an inhibitor or competing ligand from its target. The term EC50 denotes the midpoint of the concentration-response curve. On to `N=C(N)NCCC[C@H](Nc1nccs1)C(=O)N[C@@H](CCCCN)C(=O)N[C@H](C(N)=O)c1ccc(OCc2ccc(C(F)(F)F)cc2)cc1` [Compound 5], for which, in series [1], the inhibitory constant (Ki) is 0.039 µM. For the same molecule, the concentration giving a half-maximal response (EC50) in series [2] is 15.5 µM.

As for `N=C(N)NCCC[C@H](NC(=O)[C@H](CCCCN)NC(=O)OCc1ccccc1)C(=O)NC(CCCCN)P(=O)(Oc1ccccc1)Oc1ccccc1` (stereo partly drawn) [Compound 36, Cbz-Lys-Arg-Lys^P(OPh)2], in series [3], the inhibition constant Ki was found to be 8 ± 0.9 µM; the k2/Ki is listed as 5 520 M^−1s^−1; the “improvement in inhibitory potency after introduction of P2 Arg and P3 Lys” value is given as 69 fold. The “percent of inhibition, Trypsin” value in series [4] was 8%^a. In series [5], the “percent of inhibition, HAT” value is listed as 2%. Further, the “percent of inhibition, CatG” value in series [6] was found to be 2%.

On to `N=C(N)NCCCC(NC(=O)[C@H](CCCNC(=N)N)NC(=O)[C@H](CCCCN)NC(=O)OCc1ccccc1)P(=O)(Oc1ccccc1)Oc1ccccc1` (stereo partly drawn) [Compound 37, Cbz-Lys-Arg-Arg^P(OPh)2], for which, in series [3], the Ki is 3 ± 0.3 µM; the k2/Ki is reported as 10 725 M^−1s^−1; the “improvement in inhibitory potency after introduction of P2 Arg and P3 Lys” value is reported as 69 fold. The “percent of inhibition, Trypsin” value in series [4] worked out at 7%. For the same molecule, the “percent of inhibition, HAT” value in series [5] was 2%. Moreover, the “percent of inhibition, CatG” value in series [6] is 3%.

In general, inhibition refers to how much of the control response was suppressed. Consider `N=C(N)NCCC[C@@H](NC(=O)[C@@H](CCCCN)NC(=O)OCc1ccccc1)C(=O)NC(Cc1ccc(NC(=N)N)cc1)P(=O)(Oc1ccccc1)Oc1ccccc1` (stereo partly drawn) [Compound 38, Cbz-Lys-Arg-(4-GuPhe)^P(OPh)2], for which the inhibitor degradation in series [7] (during enzyme inhibition assay time, assay buffer pH 8.5) is listed as ~ 1%. Also, the degradation of compound in series [7] (over 6 hours, assay buffer pH 8.5, 37 °C) is given as ~ 13%. In addition, the “% of initial inhibitor concentration” value in series [7] (time 0.0 h, assay buffer pH 8.5, 37 °C) is reported as 100%; in series [7] (time 0.5 h, assay buffer pH 8.5, 37 °C), 98,93%; in series [7] (time 1.0 h, assay buffer pH 8.5, 37 °C), 98,12%; in series [7] (time 1.5 h, assay buffer pH 8.5, 37 °C), 96,27%; in series [7] (time 2.0 h, assay buffer pH 8.5, 37 °C), 95,19%; in series [7] (time 2.5 h, assay buffer pH 8.5, 37 °C), 95,04%. Moreover, the “% of initial inhibitor concentration” value was 93,35% in series [7] (time 3.0 h, assay buffer pH 8.5, 37 °C); 91,90% in series [7] (time 3.5 h, assay buffer pH 8.5, 37 °C); 91,11% in series [7] (time 4.0 h, assay buffer pH 8.5, 37 °C); 88,43% in series [7] (time 4.5 h, assay buffer pH 8.5, 37 °C); 86,99% in series [7] (time 5.0 h, assay buffer pH 8.5, 37 °C); 86,84% in series [7] (time 5.5 h, assay buffer pH 8.5, 37 °C). The “% of initial inhibitor concentration” value in series [7] (time 6.0 h, assay buffer pH 8.5, 37 °C) is reported as 86,73%. This molecule displayed an inhibition constant Ki in series [3] of 0.4 ± 0.03 µM. In addition, in series [3] (read-out: k2/Ki), the kinact/KI is 28300 M⁻¹ s⁻¹. Further, the “percent of inhibition, Trypsin” value in series [4] is “no significant inhibition”. The inhibition at 25 µM in series [4] (read-out: percent of inhibition, Trypsin) was determined as 4%; in series [5] (read-out: percent of inhibition, HAT), 5%; in series [6] (read-out: percent of inhibition, CatG), 7%. The “percent of inhibition, HAT” value in series [5] is on record as “no significant inhibition”. Also, in series [6], the “percent of inhibition, CatG” value was “no significant inhibition”.
